pEC50: −log10 of the molar value. Read-outs that look alike come from different tables or passages of the source.

The experiment has as its target mu-opioid receptor (MOR) (Homo sapiens (Human), UniProt P35372). Kind of experiment: cell-based. Particulars: for AUC: AUC of [Ca2+]i fluorescence, CHO-K1/MOR/Gα15 cells.
[1] abbreviates: EC50, CHO-K1/MOR/Gα15 cells, combined with a MOR antagonist.
Setting [2] is: combined with a MOR antagonist, read-out: FLIPR Ca^2+ EC50.

Sequence of mu-opioid receptor (MOR) (P35372 whole entry): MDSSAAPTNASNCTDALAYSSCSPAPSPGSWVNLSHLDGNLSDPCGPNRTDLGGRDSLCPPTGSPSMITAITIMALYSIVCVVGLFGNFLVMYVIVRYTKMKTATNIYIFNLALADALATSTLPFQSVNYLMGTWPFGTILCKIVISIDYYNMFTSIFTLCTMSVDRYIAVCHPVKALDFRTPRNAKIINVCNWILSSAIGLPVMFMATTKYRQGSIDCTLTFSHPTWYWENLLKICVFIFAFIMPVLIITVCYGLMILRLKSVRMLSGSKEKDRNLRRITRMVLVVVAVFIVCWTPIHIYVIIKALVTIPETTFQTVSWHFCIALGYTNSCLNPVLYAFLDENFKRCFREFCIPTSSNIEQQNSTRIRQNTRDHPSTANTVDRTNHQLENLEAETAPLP

Turning to `COCCOCCS(=O)(=O)NC(=O)c1ccc(N2C(=O)CSC2c2ccc(F)cc2)c(C)c1` (centres unmarked) [Example 597, 4-[2-(4-Fluorophenyl)-4-oxo-1,3-thiazolidin-3-yl]-N-{[2-(2-methoxyethoxy)ethyl]sulfonyl}-3-methylbenzamide], the AUC entry (combined with a MOR antagonist) is on record as “more than 5000”. For the same compound, the pEC50 is more than 5.00 under setting [1] and 5.95 under setting [2]. Besides, the “FLIPR Ca^2+ AUC” value (combined with a MOR antagonist) was found to be 10720.

On to `Cc1cc(-c2ccco2)ccc1N1C(=O)CSC1c1ccc(F)cc1` (centres unmarked) [Example 224], for which, for the setting “combined with a MOR antagonist”, the AUC result was “more than 5000” and the “FLIPR Ca^2+ AUC” value worked out at 7384. Moreover, under setting [2], the pEC50 is 4.93.

For the compound `Cc1cc(C(=O)NS(=O)(=O)c2ccc(Br)cc2)ccc1N1C(=O)CSC1c1ccc(F)cc1` (centres unmarked) [Example 200], where the note is “combined with a MOR antagonist”, the AUC result is “more than 5000” and the “FLIPR Ca^2+ AUC” value came to 12340. The negative logarithm of the EC50 (pEC50) under setting [1] was more than 5.00. For the same compound, the pEC50 under setting [2] was 6.70.

For `COc1ccc(S(=O)(=O)NC(=O)c2ccc(N3C(=O)CSC3c3ccc(F)cc3)c(C)c2)cc1` (centres unmarked) [Example 188], the “FLIPR Ca^2+ AUC” value (combined with a MOR antagonist) was 21983. Under setting [2], the pEC50 was 6.15.

With `Cc1cc(C(=O)NS(N)(=O)=O)ccc1N1C(=O)CSC1c1ccc(F)cc1` (centres unmarked) [Example 173], where the note is “combined with a MOR antagonist”, the “FLIPR Ca^2+ AUC” value was 14841. Further, the pEC50 under setting [2] was 5.28.

Take `Cc1cc(C(=O)NCc2cc(F)ccc2F)ccc1N1C(=O)CSC1c1ccc(F)cc1` (centres unmarked) [Example 376]: the “FLIPR Ca^2+ AUC” value (combined with a MOR antagonist) was 8823. Also, the pEC50 under setting [2] is 6.00.

As to `Cc1cc(C(=O)NCCc2cccc(Cl)c2)ccc1N1C(=O)CSC1c1ccc(F)cc1` (centres unmarked) [Example 386], the “FLIPR Ca^2+ AUC” value (combined with a MOR antagonist) came out at 5727. In addition, the pEC50 under setting [2] was 5.38.

Take `COC(=O)c1ccc(N2C(=O)CSC2c2ccsc2)c(C)c1` (centres unmarked) [Example 648, Methyl 3-methyl-4-[4-oxo-2-(thiophen-3-yl)-1,3-thiazolidin-3-yl]benzoate]: where the note is “combined with a MOR antagonist”, the AUC result is reported as “more than 5000” and the “FLIPR Ca^2+ AUC” value amounted to 9356. The pEC50 under setting [1] was more than 5.00. For the same compound, the pEC50 under setting [2] was 5.70.

As to `COCCS(=O)(=O)NC(=O)c1ccc(N2C(=O)CSC2c2ccc(F)cc2)c(C)c1` (centres unmarked) [Example 593, 4-[2-(4-Fluorophenyl)-4-oxo-1,3-thiazolidin-3-yl]-N-[(2-methoxyethyl)sulfonyl]-3-methylbenzamide], under “combined with a MOR antagonist”, the AUC entry was “more than 5000” and the “FLIPR Ca^2+ AUC” value stood at 11543. For the same compound, the pEC50 under setting [1] was more than 5.00. In addition, the pEC50 under setting [2] was 5.66.

On to `Cc1cc(C(=O)OCC2CCCO2)ccc1N1C(=O)CSC1c1ccc(F)cc1` (centres unmarked) [Example 275], for which the “FLIPR Ca^2+ AUC” value (combined with a MOR antagonist) was found to be 11236. For the same compound, under setting [2], the pEC50 is 4.57.

Turning to `CC(=O)Nc1ccc(S(=O)(=O)NC(=O)c2ccc(N3C(=O)CSC3c3ccc(F)cc3)c(C)c2)cc1` (centres unmarked) [Example 202], under “combined with a MOR antagonist”, the AUC result was “more than 5000”. Further, the pEC50 runs as follows: under setting [1], more than 5.00; under setting [2], 6.22. For the setting “combined with a MOR antagonist”, the “FLIPR Ca^2+ AUC” value is reported as 17087.

For the compound `Cc1cc(C(=O)O)ccc1N1C(=O)CSC1c1cccc(F)c1` (centres unmarked) [Example 60], the “FLIPR Ca^2+ AUC” value (combined with a MOR antagonist) was 20700. In addition, the pEC50 under setting [2] was 5.96.

In the case of `Cc1cc(C(=O)NS(=O)(=O)c2cccc(F)c2)ccc1N1C(=O)CSC1c1ccc(F)cc1` (centres unmarked) [Example 194], where the note is “combined with a MOR antagonist”, the AUC result is listed as “more than 5000” and the “FLIPR Ca^2+ AUC” value is 19019. The pEC50 under setting [1] was more than 5.00. In addition, the pEC50 under setting [2] was 6.70.

Take `Cc1cc(C(=O)NC2CCCC2)ccc1N1C(=O)CSC1c1ccc(F)cc1` (centres unmarked) [Example 338]: the pEC50 is more than 5.00 under setting [1] and 5.36 under setting [2]. The “FLIPR Ca^2+ AUC” value (combined with a MOR antagonist) amounted to 9215.

As to `Cc1cc(-c2nnn[nH]2)ccc1N1C(=O)CSC1c1ccc(F)cc1` (centres unmarked) [Example 221], for the setting “combined with a MOR antagonist”, the “FLIPR Ca^2+ AUC” value turned out to be 8284. Also, the negative-log EC50 (pEC50) under setting [2] is 6.70.

As to `Cc1cc(C(=O)NC2CCCCC2)ccc1N1C(=O)CSC1c1ccc(F)cc1` (centres unmarked) [Example 339], for the setting “combined with a MOR antagonist”, the “FLIPR Ca^2+ AUC” value is listed as 7164. For the same compound, the pEC50 under setting [2] was 5.00.

With `Cc1cc(C(=O)OC(C)(C)C)ccc1N1C(=O)CSC1c1ccc(F)cc1` (centres unmarked) [Example 235], the “FLIPR Ca^2+ AUC” value (combined with a MOR antagonist) was found to be 15203. The pEC50 under setting [2] was 5.17.

For `Cc1cc(C(=O)OCCN2CCOCC2)ccc1N1C(=O)CSC1c1ccc(F)cc1` (centres unmarked) [Example 296], the “FLIPR Ca^2+ AUC” value (combined with a MOR antagonist) came out at 14052. Moreover, the pEC50 under setting [2] is 5.64.

With `Cc1ccc(N2C(=O)CSC2c2ccc(F)cc2)c(C)c1` (centres unmarked) [Example 102], under setting [1], the pEC50 was more than 5.00.

Take `Cc1cc(C(=O)NS(=O)(=O)c2ccccc2)ccc1N1C(=O)CSC1c1ccc(F)cc1` (centres unmarked) [Example 183]: for the setting “combined with a MOR antagonist”, the AUC result is given as “more than 5000” and the “FLIPR Ca^2+ AUC” value was 12230. Besides, under setting [1], the negative logarithm of the EC50 (pEC50) is more than 5.00. For the same compound, the pEC50 under setting [2] is 5.72.

As for `Cc1cc(C(=O)NO)ccc1N1C(=O)CSC1c1ccc(F)cc1` (centres unmarked) [Example 219], under “combined with a MOR antagonist”, the “FLIPR Ca^2+ AUC” value is 14222. In addition, the pEC50 under setting [2] is 5.19.

Regarding `CCc1ccc(S(=O)(=O)NC(=O)c2ccc(N3C(=O)CSC3c3ccc(F)cc3)c(C)c2)cc1` (centres unmarked) [Example 186], for the setting “combined with a MOR antagonist”, the “FLIPR Ca^2+ AUC” value turned out to be 18048. The pEC50 under setting [2] is 6.22.

For the compound `Cc1cc(C(=O)NS(=O)(=O)c2ccc(F)cc2)ccc1N1C(=O)CSC1c1ccc(F)cc1` (centres unmarked) [Example 196], the AUC result (combined with a MOR antagonist) is recorded as “more than 5000”. In addition, the pEC50 runs as follows: under setting [1], more than 5.00; under setting [2], 5.96. Moreover, the “FLIPR Ca^2+ AUC” value (combined with a MOR antagonist) turned out to be 15620.

With `Cc1cc(C(=O)NS(=O)(=O)C(C)C)ccc1N1C(=O)CSC1c1ccc(F)cc1` (centres unmarked) [Example 165], for the setting “combined with a MOR antagonist”, the AUC entry is reported as “more than 5000” and the “FLIPR Ca^2+ AUC” value came to 11927. Moreover, under setting [2], the pEC50 is 4.65.

`CCSCCOC(=O)c1ccc(N2C(=O)CSC2c2ccc(F)cc2)c(C)c1` (centres unmarked) [Example 271]: the “FLIPR Ca^2+ AUC” value (combined with a MOR antagonist) is reported as 11997. Further, the pEC50 under setting [2] was 4.85.

For the compound `COCCOCCOC(=O)c1ccc(S(=O)(=O)NC(=O)c2ccc(N3C(=O)CSC3c3ccc(F)cc3)c(C)c2)cc1` (centres unmarked) [Example 591, 2-(2-Methoxyethoxy)ethyl 4-({4-[2-(4-fluorophenyl)-4-oxo-1,3-thiazolidin-3-yl]-3-methylbenzoyl}sulfamoyl)benzoate], where the note is “combined with a MOR antagonist”, the AUC result is on record as “more than 5000” and the “FLIPR Ca^2+ AUC” value is on record as 13033. Also, the pEC50 under setting [2] was 4.99.

For the compound `Cc1cc(C(=O)OCc2oc(=O)oc2C)ccc1N1C(=O)CSC1c1ccc(F)cc1` (centres unmarked) [Example 311], the pEC50 under setting [1] was more than 5.00.

`CC(C)(C)c1cc(N2C(=O)CSC2c2ccc(F)cc2)no1` (centres unmarked) [Example 640, 3-(5-tert-Butyl-1,2-oxazol-3-yl)-2-(4-fluorophenyl)-1,3-thiazolidin-4-one]: under “combined with a MOR antagonist”, the AUC result is given as “more than 5000” and the “FLIPR Ca^2+ AUC” value is on record as 9872. Under setting [2], the pEC50 was 4.85.

Take `COC[C@@H]1CCCN1C(=O)c1ccc(N2C(=O)CSC2c2ccc(F)cc2)c(C)c1` (some centres unmarked) [Example 355]: under “combined with a MOR antagonist”, the “FLIPR Ca^2+ AUC” value is 12691. Further, the pEC50 under setting [2] was 5.00.

Regarding `[2H]c1c([2H])c(C2SCC(=O)N2c2ccc(C(=O)OCC)cc2C)c([2H])c([2H])c1F` (centres unmarked) [Example 580, Ethyl 4-{2-[4-fluoro-2,3,5,6-d4-phenyl]-4-oxo-1,3-thiazolidin-3-yl}-3-methylbenzoate], for the setting “FLIPR Ca^2+ EC50, combined with a MOR antagonist”, the pEC50 was 5.37. Also, the “FLIPR Ca^2+ AUC” value (combined with a MOR antagonist) turned out to be 14441.

`CSCCOC(=O)c1ccc(N2C(=O)CSC2c2ccc(F)cc2)c(C)c1` (centres unmarked) [Example 270]: under setting [1], the pEC50 was more than 5.00.

A word on the pEC50: it is the negative decadic logarithm of the EC50, by convention in mol/L.

The record behind these values is US10544113B2 (priority 2016, dated 2020).
